{
  "source": "patent US20130090355A1",
  "about": "“CHEMICAL AGENTS FOR THE PREVENTION OF INHIBITION OR TUMOR METASTASIS” (ALBERT EINSTEIN COLLEGE OF MEDICINE OF YESHIVA UNIVERSITY, priority 2010, published 2013)",
  "key": {"[1]": {"target": "C3R/C81S/C86S S100A4 (Homo sapiens, UniProt P26447, C3R/C81S/C86S)", "sequence (P26447 whole entry C3R/C81S/C86S, one chain of several)": "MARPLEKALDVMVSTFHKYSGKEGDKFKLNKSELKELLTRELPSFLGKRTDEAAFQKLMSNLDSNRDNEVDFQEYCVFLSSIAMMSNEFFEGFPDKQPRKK", "experiment": "Myosin-IIA binding to C3R/C81S/C86S S100A4"}, "[2]": {"test_system": "MDA-MB-231 cells", "experiment": "MTT cell proliferation / growth inhibition assay", "settings": "for MTT Assay death: MDA-MB-231, 24 hrs", "procedure": "However, all compounds were tested in a cell proliferation assay to identify cytotoxic compounds and determine compound concentrations that can be used to examine effects on motility and invasion.\nEC50 values were determined from sixteen concentration titrations. Growth inhibition of MDA-MB-231 cells, which express high levels of S100A4, was examined in a 96-well plate MTT assay at eight drug concentrations after treatment for 24 hrs."}, "[3]": {"target": "S100A4/myosin-IIA interaction (Homo sapiens, UniProt P26447)", "sequence (P26447 whole entry, one chain of several)": "as the sequence (P26447 whole entry C3R/C81S/C86S, one chain of several) above, with R3C, S81C, S86C counted along it", "experiment": "Fluorescence polarization assay monitoring the S100A4/myosin-IIA interaction with FITC-MIIA^1908-1923 peptide", "type": "binding", "source_text": "An agent that prevents or inhibits the interaction between S100A4 and myosin-IIA may be determined by any method known in the art. For example, a fluorescence polarization assay that monitors the S100A4/myosin-IIA interaction using a fluorescein-tagged myosin-IIA peptide that comprises the minimal S100A4 binding site may be used as described in U.S. application Ser. No. 11/989,901, herein included in full.\nA fluorescence polarization assay was developed that monitors the S100A4/myosin-IIA interaction using a fluorescein-tagged myosin-IIA peptide that comprises the minimal S100A4 binding site (FITC-MIIA^1908-1923) (21, 24). […] In collaboration with the Rapid Access to NCI Discovery Resources (R•A•N•D) program, the fluorescence polarization assay was used to screen the LOPAC (1280 compounds) and Maybridge (14,320 compounds) chemical libraries to identify compounds that disrupt the S100A4/myosin-IIA interaction.\nEC50 values were determined from sixteen concentration titrations."}, "[4]": {"test_system": "MDA-MB-231 cells", "experiment": "Boyden chamber assay of serum-stimulated chemotaxis", "type": "cell-based", "settings": "Homo sapiens; MDA-MB-231 chemotaxis towards serum (5% FBS), 24 hr; read-out: EC50 inhibition of serum-stimulated migration", "protocol": "FIG. 4. Boyden chamber assay examining the effects of lead compounds on MDA-MB-231 chemotaxis. Cells were serum starved for 5 hrs and plated into the upper chamber of a transwell in serum-free medium. Complete medium (5% FBS) was added to the lower chamber and the cells were allowed to migrate for 24 hr. Cells that penetrated the filter were stained with DAPI and quantified by fluorescence microscopy using 10 fields per filter.\nAs proof-of-principle that S100A4 inhibitors affect the motile and invasive capabilities of carcinoma cells, cell migration assays examining the ability of NSC 5069 and XAX 00168 to inhibit chemotaxis of MDA-MB-231 cells towards serum in a Boyden chamber assay were initiated (FIG. 4). Both NSC 5069 and XAX 00168 inhibit serum-stimulated migration to varying extents with EC50 values of approximately 40 and 20 μM for NSC 5069 and XAX 00168, respectively."}, "[5]": {"target": "wild-type S100A4 (Homo sapiens, UniProt P26447)", "sequence (P26447 whole entry, one chain of several)": "as the sequence (P26447 whole entry C3R/C81S/C86S, one chain of several) above, with R3C, S81C, S86C counted along it", "experiment": "Mass spectrum of wild-type S100A4 after treatment with compound (covalent modification)", "source_text": "(§1) FIG. 3A-3D. Mass spectrum of wild-type S100A4 (A) and following treatment with NSC 95397 (B). Mass spectrum of C81S/C86S S100A4 (C) and following treatment with NSC 95397 (D)."}, "[6]": {"target": "C81S/C86S S100A4 (Homo sapiens, UniProt P26447, C81S/C86S)", "sequence (P26447 whole entry C81S/C86S, one chain of several)": "as the sequence (P26447 whole entry C3R/C81S/C86S, one chain of several) above, with R3C counted along it", "experiment": "Mass spectrum of C81S/C86S S100A4 after treatment with compound (covalent modification)", "settings": "Cys81 and Cys86 substituted with serine", "source_text": "as §1"}, "[7]": {"settings": "read-out: EC50 (inhibition of the S100A4/myosin-IIA interaction)"}, "[8]": {"settings": "Table 1, sixteen concentration titrations, read-out: EC50"}},
  "note": "Several values for one entry are separate records, joined by “and”; a condition that tells them apart may be missing. Identical values can stand only once. Entries after “also recorded” stand apart in the source; their conditions may differ. Like-named read-outs stand apart in the source and are kept apart here.",
  "data": [
    {"smiles": "CSCC[C@H](NC(=O)[C@H](C)NC(=O)[C@H](CC(=O)O)NC(=S)Nc1ccc2c(c1)C(=O)OC21c2ccc(O)cc2Oc2cc(O)ccc21)C(=O)N[C@@H](CC(N)=O)C(=O)N[C@@H](CCCNC(=N)N)C(=O)N[C@@H](CCC(=O)O)C(=O)N[C@H](C(=O)N[C@@H](CO)C(=O)N[C@@H](CO)C(=O)N[C@@H](CC(C)C)C(=O)N[C@@H](CCCCN)C(=O)N[C@@H](CC(N)=O)C(=O)N[C@@H](CCCCN)C(=O)N[C@@H](CC(C)C)C(=O)N[C@@H](CCCNC(=N)N)C(=O)N[C@@H](CCCNC(=N)N)C(=O)O)C(C)C", "note": "[FITC-MIIA^1908-1923]", "values": [
      {"measurement": "myosin-IIA binding", "setting": "[1]", "value": "undetectable"}
    ]},
    {"smiles": "CSc1sc(C(=O)NN)cc1-c1nc(C)cs1", "note": "[Maybridge KM03663, 5-methylsulfanyl-4-(4-methyl-1,3-thiazol-2-yl)thiophene-2-carbohydrazide]", "values": [
      {"measurement": "MTT Assay death", "setting": "[2]; at 150 μM", "value": 100, "unit": "% death at 150 μM"},
      {"measurement": "EC50", "setting": "[3]; [7]", "value": "38 to 46", "unit": "µM"}
    ]},
    {"smiles": "Cc1oc(-c2ccc(Cl)cc2)cc1C(=O)/C(C#N)=C/c1ccccc1", "note": "[Maybridge SP00172, 2-{[5-(4-chlorophenyl)-2-methyl-3-furyl]carbonyl}-3-phenylacrylonitrile]", "values": [
      {"measurement": "MTT Assay death", "setting": "[2]; at 50 μM", "value": 100, "unit": "% death at 50 μM"},
      {"measurement": "EC50", "setting": "[3]; [7]", "value": "38 to 46", "unit": "µM"}
    ]},
    {"smiles": "O=C1NC(=S)S/C1=C\\c1cc([N+](=O)[O-])ccc1Sc1ccc(C(F)(F)F)cn1", "note": "[Maybridge XAX00168, 5-(5-nitro-2{[5-(trifluoromethyl)-2-pyridyl]thio}benzylidene)-2-thioxo-1,3-thiozolan-4-one]", "values": [
      {"measurement": "GI50", "setting": "[2]; Homo sapiens, MDA-MB-231", "value": 190, "unit": "µM"},
      {"measurement": "IC50", "setting": "[2]; Homo sapiens, MDA-MB-231, 24 h, read-out: MTT Assay IC50", "value": 190, "unit": "µM"},
      {"measurement": "EC50", "setting": "[3]; [8]", "value": 46, "unit": "µM"},
      {"measurement": "EC50", "setting": "[3]; [7]", "value": "38 to 46 µM and 46 µM"},
      {"measurement": "EC50", "setting": "[4]", "value": "~20", "unit": "µM"}
    ]},
    {"smiles": "O=C(O)CC1OCC=C2CN3CCC45C6=CC(=O)C(=O)C([N+](=O)[O-])=C6NC4C1C2CC35", "note": "(stereo not drawn) [NSC5069, Cacotheline]", "values": [
      {"measurement": "MTT Assay toxicity", "setting": "[2]; MDA-MB-231, eight drug concentrations, 24 hrs", "value": "did not exhibit toxicity; also recorded: no toxicity detected"},
      {"measurement": "EC50", "setting": "[3]; [8]", "value": 19, "unit": "µM"},
      {"measurement": "EC50", "setting": "[3]; [7]", "value": 19, "unit": "µM"},
      {"measurement": "EC50", "setting": "[4]", "value": "~40", "unit": "µM"}
    ]},
    {"smiles": "O=C1C(=O)c2cc([N+](=O)[O-])ccc2-c2ccccc21", "note": "[NSC5425/ NSC23180, 2-nitrophenanthrene-9,10-dione]", "values": [
      {"measurement": "MTT Assay death", "setting": "[2]; @ 10 μM", "value": 100, "unit": "% death @ 10 μM"}
    ]},
    {"smiles": "O=C1c2ccccc2-c2ccccc2C1(Cl)Cl", "note": "[NSC6339/ NSC135154, 10,10-dichlorophenanthren-9-one]", "values": [
      {"measurement": "MTT Assay death", "setting": "[2]; @ 2.5 μM", "value": 100, "unit": "% death @ 2.5 μM"}
    ]},
    {"smiles": "O=C1C(=O)c2cccc([N+](=O)[O-])c2-c2ccccc21", "note": "[NSC10204, 4-nitrophenanthrene-9,10-dione]", "values": [
      {"measurement": "MTT Assay death", "setting": "[2]; at 100 μM", "value": 80, "unit": "% death at 100 μM"}
    ]},
    {"smiles": "O=C1C(=O)c2ccccc2-c2ccccc21", "note": "[NSC10446/ NSC7389, Phenanthrene-9,10-dione]", "values": [
      {"measurement": "MTT Assay death", "setting": "[2]; @ 25 μM", "value": 100, "unit": "% death @ 25 μM"}
    ]},
    {"smiles": "O=C1C2=C(SCCS2)C(=O)c2ccccc21", "note": "[NSC55480, 2,3-dihydrobenzo[g][1,4]benzodithiine-5,10-dione]", "values": [
      {"measurement": "MTT Assay death", "setting": "[2]; @ 2.5 μM", "value": 100, "unit": "% death @ 2.5 μM"}
    ]},
    {"smiles": "O=C1C(SCCO)=C(SCCO)C(=O)c2ccccc21", "note": "[NSC95397, 2,3-bis(2-hydroxyethylsulfanyl)naphthalene-1,4-dione]", "values": [
      {"measurement": "covalent modification of S100A4 (mass)", "setting": "[5]", "value": "modification of each monomer at two residues"},
      {"measurement": "MTT Assay death", "setting": "[2]; @ 2.5 μM", "value": 100, "unit": "% death @ 2.5 μM"},
      {"measurement": "covalent modification of S100A4 (mass)", "setting": "[6]", "value": "prevented modification"},
      {"measurement": "EC50", "setting": "[3]; [7]", "value": 7.6, "unit": "µM"}
    ]},
    {"smiles": "O=C1C(=O)c2cc(Cl)ccc2-c2ccccc21", "note": "[NSC102363, 2-chlorophenanthrene-9,10-dione]", "values": [
      {"measurement": "MTT Assay death", "setting": "[2]; @ 10 μM", "value": 100, "unit": "% death @ 10 μM"}
    ]},
    {"smiles": "[H]/N=C1\\C(=O)c2ccccc2-c2ccccc21", "note": "[NSC139152, 10-iminophenanthren-9-one]", "values": [
      {"measurement": "EC50", "setting": "[3]; [8]", "value": 4.3, "unit": "µM"}
    ]},
    {"smiles": "CC(=O)c1ccc2c(c1)-c1ccccc1C(=O)C2=O", "note": "[NSC400689, 3-acetylphenanthrene-9,10-dione]", "values": [
      {"measurement": "MTT Assay death", "setting": "[2]; @ 2.5 μM", "value": 100, "unit": "% death @ 2.5 μM"}
    ]},
    {"smiles": "O=Nc1c(O)c2ccccc2c2ccc([N+](=O)[O-])cc12", "note": "[NSC402968]", "values": [
      {"measurement": "EC50", "setting": "[3]; [8]", "value": 17, "unit": "µM"}
    ]}
  ]
}
